Reference: patent US9353089B2, “Compositions and methods for the treatment of malaria” (Saint Louis University, priority 2013, dated 2016)

What follows are molecules tested on Plasmodium falciparum 3D7 (CQ-sensitive) (assay: In vitro antimalarial assay (malaria SYBR Green I-based fluorescence, MSF), 3D7). Conditions: 3D7, 72 h, read-out: 3D7 % inh @ 1 μM.
Type: cell-based
Protocol: Stock solutions of each test drug were prepared in DMSO at a concentration of 20 mM. The drug solutions were serially diluted with culture medium and distributed to asynchronous parasite cultures on 96-well plates in quadruplicate in a total volume of 100 μL to achieve 0.5% parasitemia with a 2% hematocrit in a total volume of 100 pt. […] After incubation, 100 μL of lysis buffer with 0.2 μL/mL SYBR Green I was added to each well.
Antimalarial potency of compounds was determined by this technique for both Plasmodium falciparum 3D7 (CQ-sensitive) and Dd2 (multi-drug resistant) strains.

SMILES	inhibition of growth at 1 µM
CC(C)COc1cccc(C2(c3cccc(-c4cccnc4)c3)NC(=N)N(C3CCOCC3)C2=O)c1 (stereo not drawn) [Example 404, 2-imino-5-(3-isobutoxyphenyl)-5-(3-(pyridin-3-yl)phenyl)-3-(tetrahydro-2H-pyran-4-yl)imidazolidin-4-one]	7%

Same assay, conditions: 3D7, Table 11, read-out: Pf 3D7 IC50

IC50	SMILES
533 nM	Cc1cccc(C2(c3cccc(C)c3)NC(=N)N(C3CCCCC3)C2=O)c1 [Example 237, 3-cyclohexyl-2-imino-5,5-bis(3-methylphenyl)-imidazolidin-4-one]

Same assay, conditions: 3D7, Table 13, read-out: 3D7 IC50

SMILES	IC50
N=C1NC(c2cccc(Oc3ccccc3)c2)(C2CC2)C(=O)N1C1CCCCC1 (stereo not drawn) [Example 570, 3-cyclohexyl-5-cyclopropyl-2-imino-5-(3-phenoxyphenyl)imidazolidin-4-one]	2870 nM
N#Cc1cccc(-c2cccc(C3(C4CCCCC4)NC(=N)N(C4CCOCC4)C3=O)c2)c1 (stereo not drawn) [Example 492, 3′-(4-cyclohexyl-2-imino-5-oxo-1-(tetrahydro-2H-pyran-4-yl)imidazolidin-4-yl)-[1,1′-biphenyl]-3-carbonitrile]	1110 nM
N=C1NC(c2cccc(O)c2)(C2CC2)C(=O)N1C1CCCCC1 (stereo not drawn) [Example 549, 3-cyclohexyl-5-cyclopropyl-5-(3-hydroxyphenyl)-2-iminoimidazolidin-4-one]	1330 nM
CC(C)COc1ccc(C2(c3ccc(OCC(C)C)cc3)NC(=N)N(C3CCOCC3)C2=O)cc1 [Example 390, 2-imino-5,5-bis[4-(2-methylpropoxy)phenyl]-3-(oxan-4-yl)imidazolidin-4-one]	4080 nM
COc1cccc(C2(C3CC3)NC(=N)N(C3CCOCC3)C2=O)c1 (stereo not drawn) [Example 499, 5-cyclopropyl-2-imino-5-(3-methoxyphenyl)-3-(tetrahydro-2H-pyran-4-yl)imidazolidin-4-one]	1390 nM
CC#Cc1cncc(-c2cccc(C3(C4CC4)NC(=N)N(C4CCCCC4)C3=O)c2)c1 (stereo not drawn) [Example 515, 3-cyclohexyl-5-cyclopropyl-2-imino-5-(3-(5-(prop-1-yn-1-yl)pyridin-3-yl)phenyl)imidazolidin-4-one]	810 nM
N=C1NC(c2ccc(Cl)cc2)(C2CCCCC2)C(=O)N1C1CCCCC1 (stereo not drawn) [Example 575, 5-(4-chlorophenyl)-3,5-dicyclohexyl-2-iminoimidazolidin-4-one]	1090 nM
C#Cc1cccc(-c2cccc(C3(C4CC4)NC(=N)N(C4CCOCC4)C3=O)c2)c1 (stereo not drawn) [Example 497, 5-cyclopropyl-5-(3′-ethynyl-[1,1′-biphenyl]-3-yl)-2-imino-3-(tetrahydro-2H-pyran-4-yl)imidazolidin-4-one]	1150 nM
N=C1NC(c2ccccc2O)(C2CC2)C(=O)N1C1CCCCC1 (stereo not drawn) [Example 573, 3-cyclohexyl-5-cyclopropyl-5-(2-hydroxyphenyl)-2-iminoimidazolidin-4-one]	> 20000 nM
COc1ccc(C2(c3ccc(OC)cc3)NC(=N)N(Cc3ccc(C)cc3)C2=O)cc1 [Example 231, 2-imino-5,5-bis(4-methoxyphenyl)-3-[(4-methylphenyl)-methyl]imidazolidin-4-one]	795 nM
COc1cc(C2(C3CCCCC3)NC(=N)N(C3CCOCC3)C2=O)ccc1Cl (stereo not drawn) [Example 501, 5-(4-chloro-3-methoxyphenyl)-5-cyclohexyl-2-imino-3-(tetrahydro-2H-pyran-4-yl)imidazolidin-4-one]	1540 nM
N#Cc1cccc(-c2cccc(C3(c4ccccc4)NC(=N)N(C4CCOCC4)C3=O)c2)c1 (stereo not drawn) [Example 413, 3′-(2-imino-5-oxo-4-phenyl-1-(tetrahydro-2H-pyran-4-yl)imidazolidin-4-yl)-[1,1′-biphenyl]-3-carbonitrile]	1990 nM
N=C1NC(c2cccc(-c3cncc(Cl)c3)c2)(C2CC2)C(=O)N1C1CCCCC1 (stereo not drawn) [Example 514, 5-(3-(5-chloropyridin-3-yl)phenyl)-3-cyclohexyl-5-cyclopropyl-2-iminoimidazolidin-4-one]	970 nM
COc1ccccc1C1(C2CC2)NC(=N)N(C2CCOCC2)C1=O (stereo not drawn) [Example 518, 5-cyclopropyl-2-imino-5-(2-methoxyphenyl)-3-(tetrahydro-2H-pyran-4-yl)imidazolidin-4-one]	5320 nM
COc1ccc(C2(c3ccc(OC)cc3)NC(=N)N(C3CCN(Cc4ccccc4)CC3)C2=O)cc1 [Example 250, 3-(1-benzylpiperidin-4-yl)-2-imino-5,5-bis(4-methoxyphenyl)-imidazolidin-4-one]	2740 nM
N=C1NC(c2cccc(O)c2)(C2CC2)C(=O)N1C1CCOCC1 (stereo not drawn) [Example 519, 5-cyclopropyl-5-(3-hydroxyphenyl)-2-imino-3-(tetrahydro-2H-pyran-4-yl)imidazolidin-4-one]	5650 nM
CC(C)COc1ccc(C2(c3cccc(-c4cccnc4)c3)NC(=N)N(C3CCOCC3)C2=O)cc1 (stereo not drawn) [Example 412, 2-imino-5-(4-isobutoxyphenyl)-5-(3-(pyridin-3-yl)phenyl)-3-(tetrahydro-2H-pyran-4-yl)imidazolidin-4-one]	4210 nM
COc1ccc(C2(c3ccc(OC)cc3)NC(=N)N(Cc3ccccn3)C2=O)cc1 [Example 229, 2-imino-5,5-bis(4-methoxyphenyl)-3-(pyridin-2-ylmethyl)-imidazolidin-4-one]	682 nM
N=C1NC(c2cccc(Cl)c2)(C2CC2)C(=O)N1C1CCOCC1 (stereo not drawn) [Example 495, 5-(3-chlorophenyl)-5-cyclopropyl-2-imino-3-(tetrahydro-2H-pyran-4-yl)imidazolidin-4-one]	930 nM

The next lines start with the values.

IC50	SMILES
680 nM	N=C1NC(c2ccc(OC(F)(F)F)cc2)(C2CC2)C(=O)N1C1CCOCC1 (stereo not drawn) [Example 494, 5-cyclopropyl-2-imino-3-(tetrahydro-2H-pyran-4-yl)-5-(4-(trifluoromethoxy)phenyl)imidazolidin-4-one]
657 nM	COc1cccc(C2(c3cccc(-c4ccccn4)c3)NC(=N)N(C3CCCCC3)C2=O)c1 (stereo not drawn) [Example 227, 3-cyclohexyl-2-imino-5-(3-methoxyphenyl)-5-[3-(pyridin-2-yl)phenyl]-imidazolidin-4-one]
644 nM	COc1ccc(C2(c3ccc(OC)cc3)NC(=N)N(Cc3cccc4ccccc34)C2=O)cc1 [Example 223, 2-imino-5,5-bis(4-methoxyphenyl)-3-(naphthalen-1-ylmethyl)-imidazolidin-4-one]
640 nM	COc1ccc(C2(C3CCCC3)NC(=N)N(C3CCCCC3)C2=O)cc1 (stereo not drawn) [Example 493, 3-cyclohexyl-5-cyclopentyl-2-imino-5-(4-methoxyphenyl)imidazolidin-4-one]
554 nM	COc1ccc(CN2C(=N)NC(c3ccc(OC)cc3)(c3ccc(OC)cc3)C2=O)cc1 [Example 233, 2-imino-5,5-bis(4-methoxyphenyl)-3-[(4-methoxyphenyl)-methyl]imidazolidin-4-one]
533 nM	Cc1cccc(C2(c3cccc(C)c3)NC(=N)N(C3CCCCC3)C2=O)c1 [Example 237, 3-cyclohexyl-2-imino-5,5-bis(3-methylphenyl)-imidazolidin-4-one]
450 nM	COc1ccc(C2(c3ccc(OC)cc3)NC(=N)N(C3CCN(Cc4cc(Cl)ccc4O)CC3)C2=O)cc1 [Example 569, 3-(1-(5-chloro-2-hydroxybenzyl)piperidin-4-yl)-2-imino-5,5-bis(4-methoxyphenyl)-imidazolidin-4-one]
350 nM	N=C1NC(c2ccc(Cl)cc2)(C2CC2)C(=O)N1C1CCOCC1 (stereo not drawn) [Example 496, 5-(4-chlorophenyl)-5-cyclopropyl-2-imino-3-(tetrahydro-2H-pyran-4-yl)imidazolidin-4-one]
293 nM	N#Cc1cccc(-c2cccc(C3(C4CC4)NC(=N)N(C4CCOCC4)C3=O)c2)c1 (stereo not drawn) [Example 414, 3′-(4-cyclopropyl-2-imino-5-oxo-1-(tetrahydro-2H-pyran-4-yl)imidazolidin-4-yl)-[1,1′-biphenyl]-3-carbonitrile]
